The values that follow come from patent EP3436024B1, “3-BETA-METHOXY-PREG FOR USE IN THE TREATMENT OF TREATMENT RESISTANT DEPRESSION” (Mapreg, priority 2016, dated 2017).

In experiment [1] the target is T1, Mineralocorticoid Receptor (MR) (Rattus norvegicus, UniProt P22199).
T1 construct: Wistar Rat kidney; from tissue; host or cells: Wistar rat kidney
The experiment is described as follows: Radioligand binding assay, steroid hormone receptor MR. The settings on record: MAP4343 10 µM; 4.5 nM [^3H] D-Aldosterone; Wistar Rat kidney. The method, then: Binding affinity of 3β-methoxy-PREG (MAP4343) for receptors of steroid hormones was evaluated using radioligand binding assays.
Table 3. Affinity of MAP4343 (10 µM) for steroid hormones receptors measured by radioligand binding assays. […] None of the results met significance criteria at concentrations used.

Experiment [2] addresses T2, Muscarinic (Cholinergic) M4 (Homo sapiens, UniProt P08173).
T2 construct: expressed in transfected cells; host or cells: CHO cells
Description: CNS receptor binding assay, M4. The settings on record: MAP4343 10 µM; [^3H] 4-DAMP; Human recombinant (CHO cells); read-out: % Inhibition of control specific binding. The method, then: (§1) MAP4343 has been screened for in vitro affinity to 80 different CNS neurotransmitters receptors using various validated binding assays.
(§2) Table 4. In vitro affinity of MAP4343 (10 µM) for CNS neurotransmitter receptors associated with side effects and/or abuse liability. Data are the average of two individual assays for each receptor and are expressed as % inhibition of the control specific binding of the reference compound. Results showing an inhibition higher than 50% are considered to represent significant effects of the test compound.

The target in experiment [3] is T3, Muscarinic (Cholinergic) M5 (Homo sapiens, UniProt P08912).
T3 construct: expressed in transfected cells; host or cells: CHO cells
The experiment is described as follows: CNS receptor binding assay, M5. To be noted: MAP4343 10 µM; [^3H] 4-DAMP; Human recombinant (CHO cells); read-out: % Inhibition of control specific binding. The method, then: as §1, §2

A further experiment concerns the target Histaminergic H2 (Homo sapiens, UniProt P25021). The experiment is described as follows: CNS receptor binding assay, H2. To be noted: MAP4343 10 µM; [^125I] APT; Human recombinant (CHO cells); read-out: % Inhibition of control specific binding. The method, then:
as §1, §2

The target of the next experiment is Noradrenergic β2 (Homo sapiens, UniProt P07550). The experiment is described as follows: CNS receptor binding assay, β2. To be noted: MAP4343 10 µM; [^3H] (-) CGP 12178; Human recombinant (CHO cells); read-out: % Inhibition of control specific binding. The method, then:
as §1, §2

In experiment [4] the target is Noradrenergic Transporter (Homo sapiens, UniProt P23975). Description: CNS receptor binding assay, noradrenergic transporter. To be noted: MAP4343 10 µM; [^3H] nisoxetine; Human recombinant (CHO cells); read-out: % Inhibition of control specific binding. The method, then: as §1, §2
A further experiment addresses Serotoninergic 5-HT1B (Rattus norvegicus, UniProt P28564). Description: CNS receptor binding assay, 5-HT1B. The settings on record: MAP4343 10 µM; [^125I] CYP + (-) propranolol; rat cerebral cortex; read-out: % Inhibition of control specific binding. The method, then:
as §1, §2

For the next experiment, the target named is Serotoninergic 5-HT2A (Homo sapiens, UniProt P28223). Description: CNS receptor binding assay, 5-HT2A. The settings on record: MAP4343 10 µM; [^3H] ketanserin; Human recombinant (HEK-293 cells); read-out: % Inhibition of control specific binding. The method, then: as §1, §2
A further experiment deals with Serotoninergic 5-HT2C (Homo sapiens, UniProt P28335). The experiment is described as follows: CNS receptor binding assay, 5-HT2C. The settings on record: MAP4343 10 µM; [^3H] mesulergine; Human recombinant (CHO cells); read-out: % Inhibition of control specific binding. As to the method: as §1, §2
Another experiment concerns the target Serotoninergic 5-HT6 (Homo sapiens, UniProt P50406). The experiment is described as follows: CNS receptor binding assay, 5-HT6. To be noted: MAP4343 10 µM; [^3H] LSD; Human recombinant (CHO cells); read-out: % Inhibition of control specific binding. The method, then:
as §1, §2

The next experiment has as its target Serotoninergic 5-HT7 (Homo sapiens, UniProt P34969). Description: CNS receptor binding assay, 5-HT7. The settings on record: MAP4343 10 µM; [^3H] LSD; Human recombinant (CHO cells); read-out: % Inhibition of control specific binding. As to the method:
as §1, §2

In the next experiment the target is Dopaminergic D4.4 (Homo sapiens, UniProt P21917). Description: CNS receptor binding assay, D4.4. To be noted: MAP4343 10 µM; [^3H] spiperone; Human recombinant (CHO cells); read-out: % Inhibition of control specific binding. As to the method: as §1, §2
The subject of the next experiment is GABA (non-selective). Description: CNS receptor binding assay, GABA (non-selective). The settings on record: MAP4343 10 µM; [^3H] GABA; rat cerebral cortex. The method, then: as §1, §2
The next experiment deals with NMDA PCP site. Description: CNS receptor binding assay, NMDA PCP site. The settings on record: MAP4343 10 µM; [^3H] TCP; rat cerebral cortex. As to the method: as §1, §2
In a further experiment the target is Oppioid δ2 (Homo sapiens, UniProt P41143). Description: CNS receptor binding assay, opioid δ2. The settings on record: MAP4343 10 µM; [^3H] DADLE; Human recombinant (CHO cells); read-out: % Inhibition of control specific binding. The method, then:
as §1, §2

In another experiment the target is Oppioid K (Rattus norvegicus, UniProt P34975). The experiment is described as follows: CNS receptor binding assay, opioid K. To be noted: MAP4343 10 µM; [^3H] U 69593; rat recombinant (CHO cells); read-out: % Inhibition of control specific binding. The method, then:
as §1, §2

The next experiment concerns the target Oppioid µ (Homo sapiens, UniProt P35372). Description: CNS receptor binding assay, opioid µ. To be noted: MAP4343 10 µM; [^3H] DAMGO; Human recombinant (HEK-293 cells); read-out: % Inhibition of control specific binding. The method, then:
as §1, §2

The test system of a further experiment is Wistar (WI) rats. Description: Forced swimming test (FST), WI rats. The settings on record: dose-ranging, Fig. 6A. It is filed as in vivo, rat. As to the method:
3B-methoxy-PREG (also referred to as "MAP4343" in Example 4) was dissolved in sesame oil by sonication using a Sonifer-450 (Branson Ultrasonics Corporation, Danbury, USA) during 1 cycle of 5 pulses in sesame oil. Fluoxetine (Biotrend, Köln, Germany) and Ketamine (Sigma-Aldrich, St-Quentin Fallvier, France) were dissolved in sterile saline solution (NaCl 0.9%). The drug formulations were prepared freshly each day of treatment. MAP4343 was administered subcutaneously (ranging of 1-15 mg/Kg/day) while fluoxetine and ketamine were injected intraperitonealy (10 mg/Kg/day and 30 mg/Kg/day, respectively).
Rats were submitted to the forced swimming test (FST), according the procedure initially described by (Detke et al., 1995) and slightly modified by (Bianchi et al., 2002). Briefly, rats were individually placed into a Plexiglas cylinder (40 cm height, 20 cm diameter) containing 25 cm of water at 25 ± 1°C, under 50 lux illumination. After a pre-test session of 15 min, rats were removed, dried and returned to its housed cage. […] The pre-test and test sessions were recorded using a video camera placed above the cylinder for subsequent behavioral analysis. The immobility time (in sec) was blindly measured by two independent experimenters from recorded videos. […]
The effects of a dose-ranging administration of MAP4343 were tested in WI and WKY rats on their immobility time measured in FST.

For experiment [5], the system named is microtubule-associated protein2 (MAP2). Description: Binding (affinity) by displacement of PREG-3H. To be noted: index of binding.

T1 sequence (P22199 whole entry): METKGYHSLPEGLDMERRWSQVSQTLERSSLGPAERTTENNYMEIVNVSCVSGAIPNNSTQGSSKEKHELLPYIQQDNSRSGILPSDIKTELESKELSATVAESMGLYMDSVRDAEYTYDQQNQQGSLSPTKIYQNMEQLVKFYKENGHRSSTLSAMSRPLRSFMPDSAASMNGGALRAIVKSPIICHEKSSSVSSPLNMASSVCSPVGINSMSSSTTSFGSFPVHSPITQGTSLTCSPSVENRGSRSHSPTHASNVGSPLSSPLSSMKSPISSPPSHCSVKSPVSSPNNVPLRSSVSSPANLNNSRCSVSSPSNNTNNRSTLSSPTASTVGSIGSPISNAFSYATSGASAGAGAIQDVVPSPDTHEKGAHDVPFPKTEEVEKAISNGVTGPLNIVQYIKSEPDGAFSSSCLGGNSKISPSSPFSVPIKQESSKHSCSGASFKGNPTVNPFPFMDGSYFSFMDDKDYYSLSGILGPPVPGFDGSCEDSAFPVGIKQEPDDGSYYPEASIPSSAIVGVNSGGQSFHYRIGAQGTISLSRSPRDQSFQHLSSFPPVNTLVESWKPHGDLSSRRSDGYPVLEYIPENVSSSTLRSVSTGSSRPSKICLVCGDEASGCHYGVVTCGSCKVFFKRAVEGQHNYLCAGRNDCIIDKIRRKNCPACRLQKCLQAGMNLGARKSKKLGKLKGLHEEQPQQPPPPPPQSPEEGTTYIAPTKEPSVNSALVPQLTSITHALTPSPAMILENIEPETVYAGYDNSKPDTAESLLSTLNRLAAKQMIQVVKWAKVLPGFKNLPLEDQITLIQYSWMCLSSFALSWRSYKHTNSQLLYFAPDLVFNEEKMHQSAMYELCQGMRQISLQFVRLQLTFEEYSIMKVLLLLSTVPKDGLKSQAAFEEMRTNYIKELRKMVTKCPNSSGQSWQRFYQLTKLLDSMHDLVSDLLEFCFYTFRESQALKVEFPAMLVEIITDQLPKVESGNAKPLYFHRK
Sequence of Noradrenergic β2 (P07550 whole entry): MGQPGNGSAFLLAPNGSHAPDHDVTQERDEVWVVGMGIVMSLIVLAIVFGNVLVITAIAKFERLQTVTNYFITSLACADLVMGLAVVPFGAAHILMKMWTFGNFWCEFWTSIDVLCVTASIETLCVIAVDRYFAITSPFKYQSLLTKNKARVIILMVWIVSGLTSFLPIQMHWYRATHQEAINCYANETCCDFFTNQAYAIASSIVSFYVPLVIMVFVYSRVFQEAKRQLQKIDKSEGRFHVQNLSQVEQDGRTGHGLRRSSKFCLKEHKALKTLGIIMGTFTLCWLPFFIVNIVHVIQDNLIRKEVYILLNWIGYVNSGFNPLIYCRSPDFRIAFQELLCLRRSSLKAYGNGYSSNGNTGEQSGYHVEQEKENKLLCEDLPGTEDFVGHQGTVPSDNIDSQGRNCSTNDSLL
Sequence of Serotoninergic 5-HT2C (P28335 33-458): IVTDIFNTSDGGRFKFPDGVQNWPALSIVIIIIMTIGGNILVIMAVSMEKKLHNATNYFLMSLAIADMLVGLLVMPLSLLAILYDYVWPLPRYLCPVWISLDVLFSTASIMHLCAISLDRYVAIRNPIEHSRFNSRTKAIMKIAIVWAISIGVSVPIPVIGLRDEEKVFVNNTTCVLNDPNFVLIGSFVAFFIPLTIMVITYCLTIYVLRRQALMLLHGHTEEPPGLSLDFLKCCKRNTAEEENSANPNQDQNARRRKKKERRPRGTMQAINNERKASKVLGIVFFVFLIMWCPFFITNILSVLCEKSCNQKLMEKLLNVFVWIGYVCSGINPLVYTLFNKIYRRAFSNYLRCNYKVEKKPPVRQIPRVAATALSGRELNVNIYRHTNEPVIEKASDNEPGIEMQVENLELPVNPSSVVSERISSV
Sequence of Noradrenergic Transporter (P23975 whole entry): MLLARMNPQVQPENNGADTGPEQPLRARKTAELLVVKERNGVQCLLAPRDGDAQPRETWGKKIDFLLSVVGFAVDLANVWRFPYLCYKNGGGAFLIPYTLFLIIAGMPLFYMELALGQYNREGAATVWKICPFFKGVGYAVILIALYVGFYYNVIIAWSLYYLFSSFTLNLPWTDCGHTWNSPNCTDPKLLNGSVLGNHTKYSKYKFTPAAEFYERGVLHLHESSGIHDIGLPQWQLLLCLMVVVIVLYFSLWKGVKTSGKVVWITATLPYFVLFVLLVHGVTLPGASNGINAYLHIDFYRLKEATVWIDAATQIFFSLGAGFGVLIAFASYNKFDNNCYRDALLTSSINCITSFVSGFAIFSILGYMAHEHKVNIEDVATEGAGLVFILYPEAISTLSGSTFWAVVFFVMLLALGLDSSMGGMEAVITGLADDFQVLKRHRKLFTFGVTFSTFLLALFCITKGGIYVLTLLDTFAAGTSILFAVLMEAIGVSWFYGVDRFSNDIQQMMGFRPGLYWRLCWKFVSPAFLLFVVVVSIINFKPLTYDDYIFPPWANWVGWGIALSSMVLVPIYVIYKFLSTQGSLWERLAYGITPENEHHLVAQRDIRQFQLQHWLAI
Sequence of Histaminergic H2 (P25021 whole entry): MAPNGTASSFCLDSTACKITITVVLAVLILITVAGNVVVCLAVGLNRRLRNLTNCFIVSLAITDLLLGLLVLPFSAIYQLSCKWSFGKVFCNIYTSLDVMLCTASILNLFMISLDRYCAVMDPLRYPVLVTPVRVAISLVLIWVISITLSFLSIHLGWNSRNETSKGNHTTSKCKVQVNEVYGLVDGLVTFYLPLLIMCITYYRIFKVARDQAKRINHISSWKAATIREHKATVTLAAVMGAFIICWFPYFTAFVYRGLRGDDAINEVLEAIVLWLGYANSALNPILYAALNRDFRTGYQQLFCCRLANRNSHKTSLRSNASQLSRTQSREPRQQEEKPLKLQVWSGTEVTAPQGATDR
Sequence of Oppioid δ2 (P41143 whole entry): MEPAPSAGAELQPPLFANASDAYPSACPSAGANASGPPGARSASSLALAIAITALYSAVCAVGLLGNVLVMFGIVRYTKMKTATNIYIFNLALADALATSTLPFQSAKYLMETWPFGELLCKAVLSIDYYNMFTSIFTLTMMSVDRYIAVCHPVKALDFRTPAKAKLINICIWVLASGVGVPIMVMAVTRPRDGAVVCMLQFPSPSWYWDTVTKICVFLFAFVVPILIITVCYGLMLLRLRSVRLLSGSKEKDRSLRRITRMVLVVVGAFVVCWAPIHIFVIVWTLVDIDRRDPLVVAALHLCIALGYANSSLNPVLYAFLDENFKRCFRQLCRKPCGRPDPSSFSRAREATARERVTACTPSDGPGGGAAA
Sequence of Serotoninergic 5-HT1B (P28564 whole entry): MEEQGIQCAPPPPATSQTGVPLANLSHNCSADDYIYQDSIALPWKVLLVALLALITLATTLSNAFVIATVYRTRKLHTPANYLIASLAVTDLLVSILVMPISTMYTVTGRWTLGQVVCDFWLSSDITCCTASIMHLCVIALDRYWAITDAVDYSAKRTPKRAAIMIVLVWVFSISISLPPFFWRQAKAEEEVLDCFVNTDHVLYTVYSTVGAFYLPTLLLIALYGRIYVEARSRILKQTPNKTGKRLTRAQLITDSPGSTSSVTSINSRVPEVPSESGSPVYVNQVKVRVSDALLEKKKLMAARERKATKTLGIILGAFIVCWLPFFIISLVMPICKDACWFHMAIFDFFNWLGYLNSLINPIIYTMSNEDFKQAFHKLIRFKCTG
T2 sequence (P08173 whole entry): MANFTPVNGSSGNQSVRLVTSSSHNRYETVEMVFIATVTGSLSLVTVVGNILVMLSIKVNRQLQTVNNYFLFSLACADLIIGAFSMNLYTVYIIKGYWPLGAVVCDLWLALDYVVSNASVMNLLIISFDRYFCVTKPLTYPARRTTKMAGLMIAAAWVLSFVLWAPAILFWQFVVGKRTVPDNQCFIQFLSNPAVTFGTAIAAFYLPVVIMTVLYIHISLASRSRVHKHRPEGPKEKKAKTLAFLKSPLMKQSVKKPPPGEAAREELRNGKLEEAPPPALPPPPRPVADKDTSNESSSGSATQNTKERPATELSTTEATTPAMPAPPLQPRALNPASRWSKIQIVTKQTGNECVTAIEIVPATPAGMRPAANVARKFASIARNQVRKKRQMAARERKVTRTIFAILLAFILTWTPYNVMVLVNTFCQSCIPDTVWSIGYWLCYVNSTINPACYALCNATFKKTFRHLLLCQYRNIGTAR
Sequence of Serotoninergic 5-HT6 (P50406 whole entry): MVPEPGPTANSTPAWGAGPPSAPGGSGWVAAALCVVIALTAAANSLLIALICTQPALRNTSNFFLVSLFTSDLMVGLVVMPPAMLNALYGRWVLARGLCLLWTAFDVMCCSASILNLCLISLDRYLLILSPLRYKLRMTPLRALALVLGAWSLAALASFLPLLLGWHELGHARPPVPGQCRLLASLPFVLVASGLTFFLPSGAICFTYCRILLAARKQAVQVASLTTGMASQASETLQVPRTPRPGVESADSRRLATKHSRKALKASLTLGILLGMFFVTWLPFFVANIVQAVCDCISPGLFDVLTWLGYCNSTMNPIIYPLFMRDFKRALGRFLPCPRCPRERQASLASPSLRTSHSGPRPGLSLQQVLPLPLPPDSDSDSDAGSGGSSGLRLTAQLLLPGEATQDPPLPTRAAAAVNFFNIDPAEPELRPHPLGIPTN
Sequence of Oppioid µ (P35372 whole entry): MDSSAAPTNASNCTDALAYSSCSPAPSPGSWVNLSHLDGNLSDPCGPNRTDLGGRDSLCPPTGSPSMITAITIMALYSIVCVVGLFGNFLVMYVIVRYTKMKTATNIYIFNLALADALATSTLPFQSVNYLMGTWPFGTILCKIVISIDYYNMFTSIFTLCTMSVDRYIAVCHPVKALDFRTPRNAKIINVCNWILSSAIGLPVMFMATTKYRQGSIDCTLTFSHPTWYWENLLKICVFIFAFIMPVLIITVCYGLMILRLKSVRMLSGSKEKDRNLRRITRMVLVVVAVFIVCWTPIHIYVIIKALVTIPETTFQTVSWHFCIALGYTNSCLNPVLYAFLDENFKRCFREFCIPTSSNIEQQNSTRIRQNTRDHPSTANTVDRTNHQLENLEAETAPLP

By % inhibition is commonly meant the drop in the measured response relative to a control, in per cent. The low end stands for a weak effect, the high end for a strong effect. Broadly, the inhibition is the drop in the measured response relative to a control, in per cent. `CO[C@H]1CC[C@@]2(C)C(=CC[C@H]3[C@@H]4CC[C@H](C(C)=O)[C@@]4(C)CC[C@@H]32)C1` (stereo in doubt) [MAP4343, 3β-methoxy-pregna-5-ene-20-one]: in experiment [1], the “% inhibition” value is 25%. Further, the inhibition at 10 µM in [1] is under 25%; in experiment [2], 20%; in experiment [3], 12%; on Histaminergic H2, -21%; at Noradrenergic β2, -4%; in experiment [4], 3%. Besides, the inhibition at 10 µM was 4% on Serotoninergic 5-HT1B; 1% on Serotoninergic 5-HT2A; 7% at Serotoninergic 5-HT2C; 12% at Serotoninergic 5-HT6; -11% on Serotoninergic 5-HT7; 6% at Dopaminergic D4.4. In addition, the figures for the inhibition at 10 µM on Oppioid δ2, on Oppioid K and at Oppioid µ were -3%, 19% and 0%, respectively. The “% Inhibition of control specific binding” value in the experiment with GABA (non-selective) was 2%; with NMDA PCP site, -10%. The “immobility time measured in FST, change as compared to WI receiving vehicle alone” value in the experiment on Wistar (WI) rats (MAP4343 10 mg/kg) is given as -27%; with Wistar (WI) rats (MAP4343 15 mg/kg), -31%. Further, in [5], the Affinity is 100% of PREG.
